In paper PMC11239673, “Structural basis for the bi-specificity of USP25 and USP28 inhibitors” (EMBO Reports, 2024):
Several values for one entry are separate records, joined by “and”; a condition that tells them apart may be missing. Equal entries are not always repeated. Where two headings read alike, the source gives them in different places.

Assays:
USP25fl = biological target: T1, USP25fl (Homo sapiens, UniProt Q9UHP3); assay: SEC-MALS analysis of the oligomeric state of USP25fl after inhibitor incubation; settings: for MW [kDa]: SEC-MALS molar mass of USP25-fl
T1 sequence (Q9UHP3 1-1055): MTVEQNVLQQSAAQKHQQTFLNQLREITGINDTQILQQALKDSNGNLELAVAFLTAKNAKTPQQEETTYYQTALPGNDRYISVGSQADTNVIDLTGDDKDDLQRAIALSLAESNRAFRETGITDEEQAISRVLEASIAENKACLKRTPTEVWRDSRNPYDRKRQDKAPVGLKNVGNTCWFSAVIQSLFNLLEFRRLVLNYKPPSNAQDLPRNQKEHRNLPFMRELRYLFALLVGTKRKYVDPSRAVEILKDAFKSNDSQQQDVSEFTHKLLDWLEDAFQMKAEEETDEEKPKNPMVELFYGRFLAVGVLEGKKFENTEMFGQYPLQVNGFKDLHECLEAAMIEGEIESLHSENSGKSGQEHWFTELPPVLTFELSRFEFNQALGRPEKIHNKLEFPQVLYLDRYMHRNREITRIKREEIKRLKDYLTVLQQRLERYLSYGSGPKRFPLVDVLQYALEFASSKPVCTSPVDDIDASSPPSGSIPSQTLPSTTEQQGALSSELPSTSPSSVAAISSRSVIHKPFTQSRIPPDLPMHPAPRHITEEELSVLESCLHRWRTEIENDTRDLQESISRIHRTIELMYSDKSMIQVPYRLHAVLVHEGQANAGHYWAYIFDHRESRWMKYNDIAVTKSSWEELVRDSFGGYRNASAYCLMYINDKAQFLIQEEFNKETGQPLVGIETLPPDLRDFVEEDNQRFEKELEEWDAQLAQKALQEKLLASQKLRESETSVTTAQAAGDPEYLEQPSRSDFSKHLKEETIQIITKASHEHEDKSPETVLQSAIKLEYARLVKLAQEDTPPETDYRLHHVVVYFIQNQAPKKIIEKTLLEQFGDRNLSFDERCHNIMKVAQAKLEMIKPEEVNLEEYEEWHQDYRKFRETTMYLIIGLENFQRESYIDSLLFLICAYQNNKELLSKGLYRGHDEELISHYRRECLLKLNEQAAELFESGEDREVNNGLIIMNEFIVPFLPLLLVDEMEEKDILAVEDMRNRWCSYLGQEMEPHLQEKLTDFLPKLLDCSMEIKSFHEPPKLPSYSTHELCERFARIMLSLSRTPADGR

USP25Δtip E373A = biological target: T2, USP25Δtip E373A (Homo sapiens, UniProt Q9UHP3, DEL465-537/E373A/INS464GSGSGS); assay: Ub-Rho110 dose–response assay, USP25Δtip E373A; assay type: biochemical
T2 construct: 6xHis or thioredoxin-6xHis (N, cleaved yes); made in house; host or cells: E. coli BL21star (DE3)
T2 sequence (Q9UHP3 with tags, fused parts or gaps E373A/DEL465-477/P478G/DEL482-535/A536G/P537S limits assumed): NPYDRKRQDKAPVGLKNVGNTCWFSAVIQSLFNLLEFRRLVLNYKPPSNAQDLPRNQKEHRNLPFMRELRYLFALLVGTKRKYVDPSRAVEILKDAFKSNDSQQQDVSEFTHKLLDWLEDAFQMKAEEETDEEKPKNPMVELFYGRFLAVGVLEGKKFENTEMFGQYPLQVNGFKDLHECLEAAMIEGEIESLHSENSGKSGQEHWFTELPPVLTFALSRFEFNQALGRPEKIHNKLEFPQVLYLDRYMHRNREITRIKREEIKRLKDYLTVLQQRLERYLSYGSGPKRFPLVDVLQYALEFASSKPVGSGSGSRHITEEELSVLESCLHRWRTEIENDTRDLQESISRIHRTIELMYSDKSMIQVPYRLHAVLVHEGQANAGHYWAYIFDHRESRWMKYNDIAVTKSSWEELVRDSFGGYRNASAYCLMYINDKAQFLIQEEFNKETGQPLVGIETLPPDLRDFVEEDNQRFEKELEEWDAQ

USP28Δtip E366A = biological target: T3, USP28Δtip E366A (Homo sapiens, UniProt Q96RU2, E366A/INS458SGSG); assay: Ub-Rho110 dose–response assay, USP28Δtip E366A; assay type: biochemical; settings: for IC50: USP28 - E366A
T3 sequence (Q96RU2 with tags, fused parts or gaps E366A/INS458SGSG): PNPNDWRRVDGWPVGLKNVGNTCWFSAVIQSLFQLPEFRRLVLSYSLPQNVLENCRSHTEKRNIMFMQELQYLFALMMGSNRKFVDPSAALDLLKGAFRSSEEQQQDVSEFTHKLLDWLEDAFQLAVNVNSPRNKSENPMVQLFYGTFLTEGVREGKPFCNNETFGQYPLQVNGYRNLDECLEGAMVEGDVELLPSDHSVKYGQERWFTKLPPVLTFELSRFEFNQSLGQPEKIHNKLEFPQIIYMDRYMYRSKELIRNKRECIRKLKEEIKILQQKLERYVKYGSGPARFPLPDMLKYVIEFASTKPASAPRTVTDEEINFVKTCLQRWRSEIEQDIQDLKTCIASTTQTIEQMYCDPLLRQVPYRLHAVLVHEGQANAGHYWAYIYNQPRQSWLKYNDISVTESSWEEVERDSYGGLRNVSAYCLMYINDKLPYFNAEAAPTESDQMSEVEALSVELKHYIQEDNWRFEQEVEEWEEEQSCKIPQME

[1] = 20 µM USP25, 60 µM inhibitor, mean of experiments
[2] = 20 µM USP25, 60 µM inhibitor, single experiments

Compound: Cc1ccc2c(N)c(C(=O)NC3CCc4cc(N5CC6CCC(C5)N6)ccc4C3)sc2n1 (stereo not drawn) [FT206]
- avg. Mol mass (10.5-14.5 ml), mean (USP25fl; 20 µM USP25, 60 µM inhibitor, mean of 4 experiments): 298.950
- dimer (fraction), mean (USP25fl; [1]): 0.777
- tetramer (fraction), mean (USP25fl; [1]): 0.223
- avg. Mol mass (10.5-14.5 ml) (USP25fl; [2]): 298.000 and 299.300 and 295.500 and 303.000
- dimer (fraction) (USP25fl; [2]): 0.781 and 0.775 and 0.791 and 0.760
- tetramer (fraction) (USP25fl; [2]): 0.219 and 0.225 and 0.209 and 0.240
- % dimer (USP25fl; 20 µM USP25fl, 60 µM inhibitor, 45 min, average of ≥3 experiments ± SD, DMSO control 26.2 ± 1.5): 77.7 ± 1.1%
- % tetramer (USP25fl; 20 µM USP25fl, 60 µM inhibitor, 45 min, average of ≥3 experiments ± SD, DMSO control 73.8 ± 1.5): 22.3 ± 1.1%
- Ø Mw (USP25fl; 20 µM USP25fl, 60 µM inhibitor, 45 min, average of ≥3 experiments ± SD, DMSO control 424.7 ± 3.8): 299.0 ± 2.7 kDa
- MW [kDa] (USP25fl; 10 µM USP25-fl + 5 µM inhibitor, elution volume V [mL] in the cell to the left): 638.16 kDa and 634.82 kDa and 630.15 kDa and 628.44 kDa
- MW [kDa] (USP25fl; 10 µM USP25-fl + 10 µM inhibitor, elution volume V [mL] in the cell to the left): 647.07 kDa and 645.88 kDa and 640.88 kDa and 638.88 kDa
- MW [kDa] (USP25fl; 10 µM USP25-fl + 20 µM inhibitor, elution volume V [mL] in the cell to the left): 747.51 kDa and 739.67 kDa and 732.41 kDa and 732.02 kDa
- dRI (USP25fl; SEC-MALS trace, 10 µM USP25-fl + 20 µM inhibitor, elution volume V [mL] in the cell to the left): 3.84E-07 and 3.46E-07 and 3.10E-07 and 2.78E-07
- t-test vs. USP25 WT control - E373A (USP25Δtip E373A; p value, inhibitor IC50 on USP25 E373A compared with USP25 WT): 3.888E-04
- inhibition at 11.11 µM (USP25Δtip E373A; read-out: relative inhibition [%] - USP25 - E373A, inhibitor 11.11 µM, single replicates): 13.3%
- inhibition at 33.33 µM (USP25Δtip E373A; read-out: relative inhibition [%] - USP25 - E373A, inhibitor 33.33 µM, single replicates): 33.6%
- inhibition at 100 µM (USP25Δtip E373A; read-out: relative inhibition [%] - USP25 - E373A, inhibitor 100.00 µM, single replicates): 59.9%
- t-test vs. USP28 WT control - E366A (USP28Δtip E366A): 4.894E-04
- IC50 (USP28Δtip E366A; mean of replicates, read-out: IC50, mean and SD): 17.3 µM
- IC50 (USP28Δtip E366A; single replicates, read-out: IC50 of each replicate curve (unlabelled line above mean and SD)): 14.5 µM and 15.5 µM and 12.1 µM and 14.2 µM and 25.7 µM and 21.9 µM
- inhibition at 100 µM (USP28Δtip E366A; read-out: relative inhibition [%] - USP28 - E366A): 64.6%
